Laboratory results from patent US10189840B2, “Substituted tricyclic heterocyclic compounds” (BRISTOL-MYERS SQUIBB COMPANY, priority 2015, dated 2019).
pIC50: −log10 of the molar value.

Each compound was assayed against TNFα (Homo sapiens (Human), UniProt P01375) (assay: TNF induced HEK-Blue assay). Details: TNFα 0.5 ng/ml; HEK-Blue-CD40L cells, NF-κB-driven secreted alkaline phosphatase reporter; 18 h.
Chain of TNFα (P01375 77-233): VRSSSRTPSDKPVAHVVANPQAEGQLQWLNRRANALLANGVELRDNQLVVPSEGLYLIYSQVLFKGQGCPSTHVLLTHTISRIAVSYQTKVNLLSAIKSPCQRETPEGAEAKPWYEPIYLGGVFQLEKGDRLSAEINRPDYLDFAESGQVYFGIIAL
Type: cell-based
Method in brief: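 Compounds at 0.004–25 μM final were preincubated 30 min with TNFα (0.5 ng/ml final) in DMEM/10% FBS. HEK-Blue-CD40L cells carrying an NF-κB-driven SEAP reporter (20,000/well) were then added for 18 h at 37 °C, 5% CO2, and SEAP was read by QUANTI-Blue at 620 nm. IC50 came from a 4-parameter logistic fit, normalized to unstimulated and stimulated DMSO controls.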
`CC(C)(O)c1ccc(-c2ccc3nc4n(c3n2)C(c2ccccc2C(F)(F)F)CC4F)cc1` (single isomer, unassigned) [Example 14 (e4), 2-(4-(6-Fluoro-8-(2-(trifluoromethyl)phenyl)-7,8-dihydro-6H-pyrrolo[2′,1′:2,3]imidazo[4,5-b]pyridin-2-yl)phenyl)propan-2-ol] showed a pIC50 of over 6.00.
In the case of `Cc1ccc(C)c(C2CC(F)c3nc4ccc(-c5cnc(C(C)(C)O)nc5)nc4n32)c1` (stereo not drawn) [Example 20 (DM), 2-(5-(8-(2,5-dimethylphenyl)-6-fluoro-7,8-dihydro-6H-pyrrolo[2′,1′:2,3]imidazo[4,5-b]pyridin-2-yl)pyrimidin-2-yl)propan-2-ol], the pIC50 was over 6.00.
In the case of `CC(C)(O)c1ncc(-c2ccc3nc4n(c3n2)C(c2ccccc2OC(F)F)CC4O)cn1` (stereo not drawn) [Example 11 (e1), 8-(2-(difluoromethoxy)phenyl)-2-(2-(2-hydroxypropan-2-yl)pyrimidin-5-yl)-7,8-dihydro-6H-pyrrolo[2′,1′:2,3]imidazo[4,5-b]pyridin-6-ol], the pIC50 was over 6.00.
Compound `CC(C)(O)c1ccc(-c2ccc3nc4n(c3n2)C(c2ccccc2C(F)(F)F)CC4F)cc1` (single isomer, unassigned) [Example 14 (e1), 2-(4-(6-Fluoro-8-(2-(trifluoromethyl)phenyl)-7,8-dihydro-6H-pyrrolo[2′,1′:2,3]imidazo[4,5-b]pyridin-2-yl)phenyl)propan-2-ol] has a pIC50 of 5.00 to 6.00.
In the case of `COc1ccc(-c2ccc3nc4n(c3n2)C(c2ccccc2OC(F)F)CC4F)cn1` (stereo not drawn) [Example 18 (DM), 8-(2-(difluoromethoxy)phenyl)-6-fluoro-2-(6-methoxypyridin-3-yl)-7,8-dihydro-6H-pyrrolo[2′,1′:2,3]imidazo[4,5-b]pyridine], the pIC50 was 5.00 to 6.00.
`CC(C)(O)c1ccc(-c2ccc3nc4n(c3n2)C(c2cc(F)ccc2C(F)(F)F)CC4F)cc1` (stereo not drawn) [Example 24 (e4), 2-(4-(6-fluoro-8-(5-fluoro-2-(trifluoromethyl)phenyl)-7,8-dihydro-6H-yrrolo[2′,1′:2,3]imidazo[4,5-b]pyridin-2-yl)phenyl)propan-2-ol] gave a pIC50 of over 6.00.
With `COc1ccc(-c2ccc3nc4n(c3n2)C(c2ccccc2OC(F)F)CC4F)cn1` (single isomer, unassigned) [Example 18 (e1), 8-(2-(difluoromethoxy)phenyl)-6-fluoro-2-(6-methoxypyridin-3-yl)-7,8-dihydro-6H-pyrrolo[2′,1′:2,3]imidazo[4,5-b]pyridine] the pIC50 was over 6.00.
For `CC(C)(O)c1ccc(-c2ccc3nc4n(c3n2)C(c2ccccc2OC(F)F)CC4)cc1` (single isomer, unassigned) [Example 26 (e2), 2-(4-(8-(2-(difluoromethoxy)phenyl)-7,8-dihydro-6H-pyrrolo[2′,1′:2,3]imidazo[4,5-b]pyridin-2-yl)phenyl)propan-2-ol], the pIC50 was 4.60 to 5.00.
Work on `CC(C)(O)c1ccc(-c2ccc3nc4n(c3n2)C(c2ccccc2C2CC2)CC4F)cc1` (single isomer, unassigned) [Example 21 (e2), 2-(4-(8-(2-cyclopropylphenyl)-6-fluoro-7,8-dihydro-6H-pyrrolo[2′,1′:2,3]imidazo[4,5-b]pyridin-2-yl)phenyl)propan-2-ol] yielded a pIC50 of 5.00 to 6.00.
`CC(C)(O)c1ccc(-c2ccc3nc4n(c3n2)C(c2c(F)cccc2C(F)(F)F)CC4F)cc1` (stereo not drawn) [Example 23 (e1), 2-(4-(6-fluoro-8-(2-fluoro-6-(trifluoromethyl)phenyl)-7,8-dihydro-6H-pyrrolo[2′,1′:2,3]imidazo[4,5-b]pyridin-2-yl)phenyl)propan-2-ol] was tested, and the pIC50 was over 6.00.
`CC(C)(O)c1ncc(-c2ccc3nc4n(c3n2)C(c2ccccc2OC(F)F)CC4F)cn1` (stereo not drawn) [Example 16 (DM), 2-(5-(8-(2-(difluoromethoxy)phenyl)-6-fluoro-7,8-dihydro-6H-pyrrolo[2′,1′:2,3]imidazo[4,5-b]pyridin-2-yl)pyrimidin-2-yl)propan-2-ol] was tested, and the pIC50 was over 6.00.
Work on `Cc1ccc(C)c([C@H]2CCc3nc4ccc(-c5cnn(C)c5)nc4n32)c1` [Example 40, (R)-8-(2,5-dimethylphenyl)-2-(1-methyl-1H-pyrazol-4-yl)-7,8-dihydro-6H-pyrrolo[2′,1′:2,3]imidazo[4,5-b]pyridine] yielded a pIC50 of 5.00 to 6.00.
